Laboratory results reported in US7147866B2, “UV-absorbing lipid vesicles” (Galaxy Surfactants Limited, priority 2004, dated 2006).

Tests used:
[1] = Molar extinction coefficient (UV absorption) in methanol; type: physicochemical; conditions: at λmax 305 nm in methanol
[2] = Vesicle formation and stability of aqueous dispersion; type: physicochemical
Description: However, this short duration of stability of aqueous suspension is sufficient for conducting the photoprotection experiment.

[3] = system: hairless skin of inner side of forearm; experiment: Photoprotection on human forearm skin exposed to midday sun; melanin content and erythema levels by Mexameter-18; type: in vivo; conditions: liposomal vs non-vesicle aqueous suspension
Description: Liposomal dispersion composition (200 mg of 5.0% dispersion) of p-methoxy cinnamidopropyldimethylbehenyl ammonium tosylate and a cream preparation containing octyl methoxy cinnamate (200 mg of cream containing 5% OMC) are applied on hairless skin of inner side of forearm (36 cm^2). The forearms are exposed to midday sun for 15 minutes. The melanin content and erythema levels have been measured by Mexameter-18 (Courage+Khazakha, gmbh, Germany) before and after the exposure.

| Compound | Molar extinction coefficient, ε [1] | Stability of dispersion in water ([2]; aqueous suspension) | Vesicle formation ([2]; lipid by itself in water) | Photoprotection efficacy compared with p-methoxy cinnamidopropyl dimethyllauryl ammonium tosylate suspension [3] |
| --- | --- | --- | --- | --- |
| CCCCCCCCCCCCCCCCCCCCCC[N+](C)(C)CCCNC(=O)c1ccc(N(C)C)cc1.Cc1ccc(S(=O)(=O)[O-])cc1 [p-N,N-dimethylamine benzamidopropyldimethylbehenyl ammonium tosylate] | 22,200 | – | – | – |
| CCCCCCCCCCCC[N+](C)(C)CCCNC(=O)C=Cc1ccc(OC)cc1.Cc1ccc(S(=O)(=O)[O-])cc1 [p-methoxy cinnamidopropyl dimethyllauryl ammonium tosylate] | – | unstable dispersion in water | does not form vesicles | – |
| CCCCCCCCCCCCCCCCCCCCCC[N+](C)(C)CCCNC(=O)C=Cc1ccc(OC)cc1.Cc1ccc(S(=O)(=O)[O-])cc1 [p-methoxy cinnamidopropyldimethylbehenyl ammonium tosylate] | 23,000 | – | – | much more superior in protecting skin |
